# In US20100113613A1, “CYCLOHEXANE POLYALCOHOL FORMULATION FOR TREATMENT OF DISORDERS OF PROTEIN AGGREGATION” (WARATAH PHARMACEUTICALS, priority 2006, published 2010):
# Where two headings read alike, the source gives them in different places.
# Key:
# [1] = Single oral and intravenous dose pharmacokinetics, dose range-finding study in beagle dogs; assay type: in vivo, beagle dog; settings: dogs
# Protocol: PK of single oral doses of the scyllo-cyclohexanhexyl was also investigated in a preliminary fashion in a dose range-finding study in 5 beagle dogs. […] The Cmax and AUC values increased proportionally with dose, consistent with observations in the larger study. Estimates of t½ ranged from 2 to 5 hours. Neither dose nor route of administration had any clear effect on t½, MRT, Cl/F or Vdss.
# in vivo [2] = settings: rat; for kel / Vd: 28 days
# Protocol: Plasma PK of a scyllo-cyclohexanehexyl compound in rats was assessed after 28 days oral dosing of 15, 50 and 150 mg/kg, administered twice daily. […] Indeed, at this dose level, the Vdss, clearance and elimination rates appeared to be reduced with repeated dosing. […] As for single doses, the scyllo-cyclohexanehexyl was absorbed rapidly, with mean tmax observed between 1.2 and 1.3 hours post-dose. […] Estimates of MRT were consistent.
# in vivo [3] = settings: dog; for AUC(0-inf) / AUC(0-t) / CL/F / Cmax / MRT / Tmax / VdSS / half-life: po
# Protocol: Plasma PK of a scyllo-cyclohexanhexyl in dogs was assessed after 14 days oral dosing of 15, 50 and 150 mg/kg, administered twice daily. As on Day 1 of this study Cmax and AUC values increased proportionally with dose level of scyllo-cyclohexanehexyl. However, dose-normalised exposures appeared to decrease with dose. This contrasts with positive trend observed after acute exposure. […] As for single doses, the scyllo-cyclohexanehexyl was absorbed rapidly, with tmax observed between 1.1 and 1.8 hours post-dose. […] Estimates of MRT were consistent. The Vdss and Cl/F values were similar for all dose levels.
# [4] = Brain penetrance: plasma and CSF pharmacokinetics after single oral doses in dogs; assay type: in vivo, dog; settings: dog
# Excerpt: CSF bathes the central nervous system and sits on the inside of the blood brain barrier. Although a centrally-acting drug will still need to penetrate brain tissue to exert an effect, quantification of drug in CSF may provide a gross estimate of brain-penetrance.
# [5] = CSF and plasma levels at end of 14 day repeat dose study in dogs; assay type: in vivo, dog; settings: dog, oral, after 14 days dosing; for concentration at 24 h: CSF, read-out: CSF level at 24 h; for concentration at 12 h: plasma, read-out: Plasma level at 12 h
# Protocol: CSF was also collected from dogs at the end of the 14 day repeat study upon necropsy (approximately 24 hours after the final dose was administered). Levels of the scyllo-cyclohexanehexyl in CSF increased with dose and followed the profile observed in plasma.
# [6] = single intravenous dose 240 mg/kg
# [7] = CSF, single oral dose 240 mg/kg
# [8] = PLASMA LEVELS, single oral dose 20 mg/kg
# [9] = PLASMA LEVELS, single oral dose 80 mg/kg
# [10] = PLASMA LEVELS, single oral dose 240 mg/kg
compound,measurement,setting,value
"OC1C(O)C(O)C(O)C(O)C1O (centres unmarked) [AZD-103, scyllo-inositol]",kel,[1]; single intravenous dose 80 mg/kg,0.21 ± 0.02 h⁻¹
same,Cp0,[1]; [6],127.9 ± 19.1 µg/mL
same,kel,[1]; [6],0.30 ± 0.02 h⁻¹
same,kel,[1]; single oral dose 20 mg/kg,0.2 ± 0.2 h⁻¹
same,kel,[1]; single oral dose 80 mg/kg,0.4 ± 0.1 h⁻¹
same,kel,[1]; single oral dose 240 mg/kg,0.4 ± 0.1 h⁻¹
same,kel,in vivo [2]; 15 mg/kg,0.16 ± 0.03 h⁻¹
same,kel,in vivo [2]; 50 mg/kg,0.21 ± 0.03 h⁻¹
same,kel,in vivo [2]; 150 mg/kg,0.22 ± 0.02 h⁻¹
same,AUC(0-inf),"in vivo [2]; po, 15 mg/kg",195 ± 71.7 µg·h/mL
same,AUC(0-t),"in vivo [2]; po, 15 mg/kg",161 ± 57.7 µg·h/mL
same,CL/F at 28 days,"in vivo [2]; po, 15 mg/kg",2.9 mL/min/kg
same,Cmax at 28 days,"in vivo [2]; po, 15 mg/kg",28500 ± 4900 ng/mL
same,MRT at 28 days,"in vivo [2]; po, 15 mg/kg",6.7 ± 0.6 h
same,Tmax,"in vivo [2]; po, 15 mg/kg",1.3 ± 0.5 h
same,half-life at 28 days,"in vivo [2]; po, 15 mg/kg",4.4 ± 0.6 h
same,Vd,"in vivo [2]; po, 15 mg/kg",1.14 L/kg
same,AUC(0-inf),"in vivo [2]; po, 50 mg/kg",298 ± 82.2 µg·h/mL
same,AUC(0-t),"in vivo [2]; po, 50 mg/kg",271 ± 70.7 µg·h/mL
same,CL/F at 28 days,"in vivo [2]; po, 50 mg/kg",5.95 mL/min/kg
same,Cmax at 28 days,"in vivo [2]; po, 50 mg/kg",59400 ± 8400 ng/mL
same,MRT at 28 days,"in vivo [2]; po, 50 mg/kg",4.9 ± 0.8 h
same,Tmax,"in vivo [2]; po, 50 mg/kg",1.2 ± 0.4 h
same,half-life at 28 days,"in vivo [2]; po, 50 mg/kg",3.3 ± 0.5 h
same,Vd,"in vivo [2]; po, 50 mg/kg",1.73 L/kg
same,AUC(0-inf),"in vivo [2]; po, 150 mg/kg",615 ± 129 µg·h/mL
same,AUC(0-t),"in vivo [2]; po, 150 mg/kg",573 ± 128 µg·h/mL
same,CL/F at 28 days,"in vivo [2]; po, 150 mg/kg",8.41 mL/min/kg
same,Cmax,"in vivo [2]; po, 150 mg/kg",171000 ± 79900 ng/mL
same,MRT at 28 days,"in vivo [2]; po, 150 mg/kg",4.6 ± 0.8 h
same,Tmax,"in vivo [2]; po, 150 mg/kg",1.2 ± 0.4 h
same,half-life at 28 days,"in vivo [2]; po, 150 mg/kg",3.1 ± 0.3 h
same,Vd,"in vivo [2]; po, 150 mg/kg",2.34 L/kg
same,kel,in vivo [3]; 15 mg/kg,0.2 ± 0.08 h⁻¹
same,kel,in vivo [3]; 50 mg/kg,0.2 ± 0.1 h⁻¹
same,kel,in vivo [3]; 150 mg/kg,0.3 ± 0.04 h⁻¹
same,AUC(0-inf),in vivo [3]; 15 mg/kg,95.2 ± 18.6 µg·h/mL
same,AUC(0-t),in vivo [3]; 15 mg/kg,75.2 ± 9.4 µg·h/mL
same,CL/F,in vivo [3]; 15 mg/kg,0.698 mL/min/kg
same,Cmax,in vivo [3]; 15 mg/kg,16400 ± 4500 ng/mL
same,MRT,in vivo [3]; 15 mg/kg,7.4 ± 1.5 h
same,Tmax,in vivo [3]; 15 mg/kg,1.7 ± 0.5 h
same,VdSS,in vivo [3]; 15 mg/kg,0.3017 ± 0.0419 L/kg
same,half-life,in vivo [3]; 15 mg/kg,4.7 ± 2 h
same,AUC(0-inf),in vivo [3]; 50 mg/kg,262 ± 52.4 µg·h/mL
same,AUC(0-t),in vivo [3]; 50 mg/kg,232 ± 50.2 µg·h/mL
same,CL/F,in vivo [3]; 50 mg/kg,0.86 mL/min/kg
same,Cmax,in vivo [3]; 50 mg/kg,59400 ± 13000 ng/mL
same,MRT,in vivo [3]; 50 mg/kg,5.3 ± 1.2 h
same,Tmax,in vivo [3]; 50 mg/kg,1.1 ± 0.5 h
same,VdSS,in vivo [3]; 50 mg/kg,0.2726 ± 0.1217 L/kg
same,half-life,in vivo [3]; 50 mg/kg,3.8 ± 1.2 h
same,AUC(0-inf),in vivo [3]; 150 mg/kg,557 ± 133 µg·h/mL
same,AUC(0-t),in vivo [3]; 150 mg/kg,523 ± 123 µg·h/mL
same,CL/F,in vivo [3]; 150 mg/kg,1.2 mL/min/kg
same,Cmax,in vivo [3]; 150 mg/kg,121000 ± 26700 ng/mL
same,MRT,in vivo [3]; 150 mg/kg,4.6 ± 0.4 h
same,Tmax,in vivo [3]; 150 mg/kg,1.8 ± 0.4 h
same,VdSS,in vivo [3]; 150 mg/kg,0.3321 ± 0.0881 L/kg
same,half-life,in vivo [3]; 150 mg/kg,2.9 ± 0.6 h
same,AUC(0-inf),"[4]; CSF, single oral dose 20 mg/kg",38 ± 22.8 µg·h/mL
same,AUC(0-t),"[4]; CSF, single oral dose 20 mg/kg",20.6 ± 6.6 µg·h/mL
same,Cmax,"[4]; CSF, single oral dose 20 mg/kg",2300 ± 1400 ng/mL
same,Tmax,"[4]; CSF, single oral dose 20 mg/kg",4 ± 1.7 h
same,AUC(0-inf),"[4]; CSF, single oral dose 80 mg/kg",103 ± 13.1 µg·h/mL
same,AUC(0-t),"[4]; CSF, single oral dose 80 mg/kg",98 ± 13.2 µg·h/mL
same,Cmax,"[4]; CSF, single oral dose 80 mg/kg",18700 ± 1000 ng/mL
same,Tmax,"[4]; CSF, single oral dose 80 mg/kg",2.8 ± 1.5 h
same,AUC(0-inf),[4]; [7],401 ± 204 µg·h/mL
same,AUC(0-t),[4]; [7],384 ± 204 µg·h/mL
same,Cmax,[4]; [7],67400 ± 28600 ng/mL
same,Tmax,[4]; [7],3 ± 1.7 h
same,AUC(0-inf),[4]; [8],52.7 ± 17.9 µg·h/mL
same,AUC(0-t),[4]; [8],42.6 ± 9.6 µg·h/mL
same,Cmax,[4]; [8],6100 ± 3600 ng/mL
same,Tmax,[4]; [8],2.8 ± 2.2 h
same,AUC(0-inf),[4]; [9],255 ± 58.6 µg·h/mL
same,AUC(0-t),[4]; [9],250 ± 59.3 µg·h/mL
same,Tmax,[4]; [9],2.3 ± 1.3 h
same,AUC(0-inf),[4]; [10],528 ± 74.6 µg·h/mL
same,AUC(0-t),[4]; [10],514.5 ± 0.3 µg·h/mL
same,Cmax,[4]; [10],101000 ± 17800 ng/mL
same,Tmax,[4]; [10],2.3 ± 1.5 h
same,concentration at 24 h,[5]; Dose 30 mg/kg,4000 ng/mL
same,concentration at 24 h,[5]; Dose 100 mg/kg,7500 ng/mL
same,concentration at 24 h,[5]; Dose 300 mg/kg,10900 ng/mL
same,concentration at 12 h,[5]; Dose 30 mg/kg,3600 ng/mL
same,concentration at 12 h,[5]; Dose 100 mg/kg,5800 ng/mL
same,concentration at 12 h,[5]; Dose 300 mg/kg,8200 ng/mL
